In patent publication US9878986B2, “Compounds for selective histone deacetylase inhibitors, and pharmaceutical composition comprising the same” (CHONG KUN DANG PHARMACEUTICAL CORP., priority 2013, dated 2018):

Columns and labels:
[1] = molecular target: T1, HDAC 6 (Homo sapiens, UniProt Q9UBN7); assay: Test of HDAC activities, HDAC6 (fluorimetric); format: biochemical; set-up: purchased Calbiochem 382180; settings: samples at 0.1, 1, 10, 100, 1000 nM; 37° C. 60 minutes; fluorescence Ex 390, Em 460; read-out: HDAC inhibitory activities, HDAC6
T1 sequence (Q9UBN7 1-1215): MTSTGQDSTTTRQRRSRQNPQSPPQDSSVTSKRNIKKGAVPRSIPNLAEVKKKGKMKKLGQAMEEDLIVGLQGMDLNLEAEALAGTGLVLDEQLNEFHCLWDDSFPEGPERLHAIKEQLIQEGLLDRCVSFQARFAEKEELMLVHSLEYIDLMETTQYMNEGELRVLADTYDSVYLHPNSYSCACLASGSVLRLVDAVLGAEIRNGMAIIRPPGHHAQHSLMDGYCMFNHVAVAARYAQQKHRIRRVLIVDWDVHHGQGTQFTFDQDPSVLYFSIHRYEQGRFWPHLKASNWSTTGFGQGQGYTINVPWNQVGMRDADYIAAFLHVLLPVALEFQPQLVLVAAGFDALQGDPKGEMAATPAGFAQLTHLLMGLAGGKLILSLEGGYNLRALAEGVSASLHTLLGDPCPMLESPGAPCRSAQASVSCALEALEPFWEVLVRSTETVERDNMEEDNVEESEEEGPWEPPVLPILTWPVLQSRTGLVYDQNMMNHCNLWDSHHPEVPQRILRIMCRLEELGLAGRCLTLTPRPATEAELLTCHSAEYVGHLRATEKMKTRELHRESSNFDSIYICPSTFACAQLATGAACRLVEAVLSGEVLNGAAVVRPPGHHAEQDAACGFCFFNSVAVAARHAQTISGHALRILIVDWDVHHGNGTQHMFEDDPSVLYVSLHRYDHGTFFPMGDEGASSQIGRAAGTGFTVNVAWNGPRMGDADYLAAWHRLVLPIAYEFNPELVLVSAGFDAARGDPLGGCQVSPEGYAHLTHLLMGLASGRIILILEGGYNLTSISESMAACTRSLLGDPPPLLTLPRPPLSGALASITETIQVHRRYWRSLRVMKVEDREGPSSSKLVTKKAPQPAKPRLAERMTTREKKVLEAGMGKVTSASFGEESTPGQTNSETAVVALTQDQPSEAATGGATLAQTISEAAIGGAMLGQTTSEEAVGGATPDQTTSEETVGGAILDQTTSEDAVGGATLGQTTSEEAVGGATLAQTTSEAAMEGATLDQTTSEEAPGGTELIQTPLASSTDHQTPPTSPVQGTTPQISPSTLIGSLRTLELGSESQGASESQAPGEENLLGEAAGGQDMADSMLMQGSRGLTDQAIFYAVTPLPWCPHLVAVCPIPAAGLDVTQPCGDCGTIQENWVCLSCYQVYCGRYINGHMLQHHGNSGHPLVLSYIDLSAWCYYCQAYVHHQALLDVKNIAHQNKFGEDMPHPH
Method: (§1) The HDAC inhibitory activities of test materials were measured using the HDAC1 Fluorimetric Drug Discovery Assay Kit (Enzolifesciences: BML-AK511) and HDAC6 human recombinant (Calbiochem: 382180). In the HDAC1 assay, the samples were treated with concentrations of 100, 1000, and 10000 nM, and in the HDAC6 assay, the samples were treated with concentrations of 0.1, 1, 10, 100, and 1000 nM. After the treatment of the samples, the samples were reacted at 37° C. for 60 minutes, treated with a developer, and then reacted at 37° C. for 30 minutes. Then, the fluorescence intensity (Ex 390, Em 460) was measured using the FlexStation 3 (Molecular device).

[2] = molecular target: HDAC1 (Homo sapiens, UniProt Q13547); assay: Test of HDAC activities, HDAC1 Fluorimetric Drug Discovery Assay Kit; format: biochemical; set-up: purchased Enzolifesciences BML-AK511; settings: samples at 100, 1000, 10000 nM; 37° C. 60 minutes; fluorescence Ex 390, Em 460; read-out: HDAC inhibitory activities, HDAC1
Chain of HDAC1 (Q13547 whole entry): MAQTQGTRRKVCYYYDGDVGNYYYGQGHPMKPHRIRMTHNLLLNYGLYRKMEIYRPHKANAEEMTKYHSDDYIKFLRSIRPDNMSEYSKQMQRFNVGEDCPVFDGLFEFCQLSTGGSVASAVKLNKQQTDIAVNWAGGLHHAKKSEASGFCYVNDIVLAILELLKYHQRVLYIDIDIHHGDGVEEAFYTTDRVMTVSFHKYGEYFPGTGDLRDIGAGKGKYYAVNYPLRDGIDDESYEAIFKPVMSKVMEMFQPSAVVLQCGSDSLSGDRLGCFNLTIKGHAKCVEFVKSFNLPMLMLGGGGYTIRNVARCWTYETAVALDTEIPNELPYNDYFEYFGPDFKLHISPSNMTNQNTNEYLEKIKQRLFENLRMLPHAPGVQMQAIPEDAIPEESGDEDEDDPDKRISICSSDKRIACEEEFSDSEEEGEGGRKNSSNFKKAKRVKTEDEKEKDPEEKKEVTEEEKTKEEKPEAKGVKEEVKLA
Method: as §1

Question: Which results are given for `O=C(NO)c1ccc(CN(C(=O)N2CCCCC2)c2ccc(Cl)c(C(F)(F)F)c2)cc1` [Compound 389, N-(4-chloro-3-(trifluoromethyl)phenyl)-N-(4-(hydroxycarbamoyl)benzyl)piperidine-1-carboxamide]?
Answer: IC50 [1]: 37 nM; IC50 [2]: 7830 nM

Question: For `CC1CCN(C(=O)N(Cc2ccc(C(=O)NO)cc2)c2ccc(Cl)c(C(F)(F)F)c2)CC1` [Compound 390, N-(4-chloro-3-(trifluoromethyl)phenyl)-N-(4-(hydroxycarbamoyl)benzyl)-4-methylpiperidine-1-carboxamide], which IC50 [1] is on record?
Answer: 20 nM

Question: And the IC50 [2]?
Answer: 6220 nM

Question: Which IC50 [1] does the source give for `O=C(NO)c1ccc(CN(C(=O)N2CCOCC2)c2ccc(Cl)c(C(F)(F)F)c2)cc1` [Compound 391, N-(4-chloro-3-(trifluoromethyl)phenyl)-N-(4-(hydroxycarbamoyl)benzyl)morpholine-4-carboxamide] here?
Answer: 3 nM

Question: What about the IC50 [2] of the same compound?
Answer: 2120 nM

Question: Which IC50 [1] does the source give for `CC1CN(C(=O)N(Cc2ccc(C(=O)NO)cc2)c2ccc(Cl)c(C(F)(F)F)c2)CC(C)O1` (stereo not drawn) [Compound 392, N-(4-chloro-3-(trifluoromethyl)phenyl)-N-(4-(hydroxycarbamoyl)benzyl)-2,6-dimethylmorpholine-4-carboxamide] here?
Answer: 5 nM

Question: What about the IC50 [2] of the same compound?
Answer: 2870 nM

Question: How did the IC50 [1] turn out when `CN1CCN(C(=O)N(Cc2ccc(C(=O)NO)cc2)c2ccc(Cl)c(C(F)(F)F)c2)CC1` [Compound 393, N-(4-chloro-3-(trifluoromethyl)phenyl)-N-(4-(hydroxycarbamoyl)benzyl)-4-methylpiperazine-1-carboxamide] was run?
Answer: 5 nM

Question: And the IC50 [2]?
Answer: 1110 nM

Question: What does the source list for `CCN1CCN(C(=O)N(Cc2ccc(C(=O)NO)cc2)c2ccc(Cl)c(C(F)(F)F)c2)CC1` [Compound 394, N-(4-chloro-3-(trifluoromethyl)phenyl)-4-ethyl-N-(4-(hydroxycarbamoyl)benzyl)piperazine-1-carboxamide]?
Answer: IC50 [1]: 11 nM; IC50 [2]: 2590 nM

Question: What does the source list for `O=C(NO)c1ccc(CN(C(=O)N2CCOCC2)c2cccc(-c3cc(F)cc(F)c3)c2)cc1` [Compound 395, N-(3′,5′-difluorobiphenyl-3-yl)-N-(4-(hydroxycarbamoyl)benzyl)morpholine-4-carboxamide]?
Answer: IC50 [1]: 5 nM; IC50 [2]: 489 nM

Question: Which IC50 [1] does the source give for `CN(C)c1ccc(-c2cccc(N(Cc3ccc(C(=O)NO)cc3)C(=O)N3CCOCC3)c2)cn1` [Compound 396, N-(3-(6-(dimethylamino)pyridin-3-yl)phenyl)-N-(4-(hydroxycarbamoyl)benzyl)morpholine-4-carboxamide] here?
Answer: 5 nM

Question: And the IC50 [2]?
Answer: 257 nM

Question: What does the source list for `O=C(NO)c1ccc(CN(C(=O)N2CCOCC2)c2cccc(-c3cncnc3)c2)cc1` [Compound 397, N-(4-(hydroxycarbamoyl)benzyl)-N-(3-(pyrimidin-5-yl)phenyl)morpholine-4-carboxamide]?
Answer: IC50 [1]: 14 nM; IC50 [2]: 1000 nM

Question: How did the IC50 [1] turn out when `O=C(NO)c1ccc(CN(C(=O)N2CCOCC2)c2cccc(-c3cc(C(F)(F)F)cc(C(F)(F)F)c3)c2)cc1` [Compound 398, N-(3′,5′-bis(trifluoromethyl)biphenyl-3-yl)-N-(4-(hydroxycarbamoyl)benzyl)morpholine-4-carboxamide] was run?
Answer: 32 nM

Question: And the IC50 [2]?
Answer: 4450 nM

Question: How did the IC50 [1] turn out when `O=C(NO)c1ccc(CN(C(=O)N2CCOCC2)c2cccc(-c3ccc4c(c3)OCCO4)c2)cc1` [Compound 399, N-(3-(2,3-dihydrobenzo[b][1,4]dioxin-6-yl)phenyl)-N-(4-(hydroxycarbamoyl)benzyl)morpholine-4-carboxamide] was run?
Answer: 7 nM

Question: What about the IC50 [2] of the same compound?
Answer: 302 nM

Question: With `COc1cc(-c2cccc(N(Cc3ccc(C(=O)NO)cc3)C(=O)N3CCOCC3)c2)cc(OC)c1OC` [Compound 400, N-(4-(hydroxycarbamoyl)benzyl)-N-(3′,4′,5′-trimethoxybiphenyl-3-yl)morpholine-4-carboxamide] as the compound, how does the IC50 [1] read?
Answer: 8 nM

Question: And the IC50 [2]?
Answer: 770 nM

Question: What does the source list for `Cc1cccc(C)c1-c1cccc(N(Cc2ccc(C(=O)NO)cc2)C(=O)N2CCOCC2)c1` [Compound 401, N-(2′,6′-dimethylbiphenyl-3-yl)-N-(4-(hydroxycarbamoyl)benzyl)morpholine-4-carboxamide]?
Answer: IC50 [1]: 8 nM; IC50 [2]: 1790 nM

Question: Which results are given for `O=C(NO)c1ccc(CN(C(=O)N2CCOCC2)c2cccc(-c3ccoc3)c2)cc1` [Compound 402, N-(3-(furan-3-yl)phenyl)-N-(4-(hydroxycarbamoyl)benzyl)morpholine-4-carboxamide]?
Answer: IC50 [1]: 3 nM; IC50 [2]: 170 nM

Question: Which IC50 [1] does the source give for `O=C(NO)c1ccc(CN(C(=O)N2CCOCC2)c2cccc(C3=CCOCC3)c2)cc1` [Compound 403, N-(3-(3,6-dihydro-2H-pyran-4-yl)phenyl)-N-(4-(hydroxycarbamoyl)benzyl)morpholine-4-carboxamide] here?
Answer: 1 nM

Question: What about the IC50 [2] of the same compound?
Answer: 453 nM

Question: Which results are given for `CN1CC=C(c2cccc(N(Cc3ccc(C(=O)NO)cc3)C(=O)N3CCOCC3)c2)CC1` [Compound 404, N-(4-(hydroxycarbamoyl)benzyl)-N-(3-(1-methyl-1,2,3,6-tetrahydropyridin-4-yl)phenyl) morpholine-4-carboxamide]?
Answer: IC50 [1]: 16 nM; IC50 [2]: 3500 nM

Question: `CC(C)(C)OC(=O)N1CC=C(c2cccc(N(Cc3ccc(C(=O)NO)cc3)C(=O)N3CCOCC3)c2)CC1` [Compound 405, tert-butyl 4-(3-(N-(4-(hydroxycarbamoyl)benzyl)morpholine-4-carboxamido)phenyl)-5,6-dihydropyridine-1(2H)-carboxylate] was tested. Which IC50 [1] did it give?
Answer: 3 nM

Question: What about the IC50 [2] of the same compound?
Answer: 1450 nM

Question: What does the source list for `O=C(NO)c1ccc(CN(C(=O)N2CCOCC2)c2ccc(F)cc2F)cc1` [Compound 413, N-(2,4-difluorophenyl)-N-(4-(hydroxycarbamoyl)benzyl)morpholine-4-carboxamide]?
Answer: IC50 [1]: 0.4 nM; IC50 [2]: 860 nM

Question: Which results are given for `O=C(NO)c1ccc(CN(C(=O)N2CCCCC2)c2ccc(F)cc2F)cc1` [Compound 414, N-(2,4-difluorophenyl)-N-(4-(hydroxycarbamoyl)benzyl)piperidine-1-carboxamide]?
Answer: IC50 [1]: 1 nM; IC50 [2]: 1170 nM

Question: How did the IC50 [1] turn out when `CC1CN(C(=O)N(Cc2ccc(C(=O)NO)cc2)c2ccc(F)cc2F)CC(C)O1` (stereo not drawn) [Compound 415, N-(2,4-difluorophenyl)-N-(4-(hydroxycarbamoyl)benzyl)-2,6-dimethylmorpholine-4-carboxamide] was run?
Answer: 5 nM

Question: What about the IC50 [2] of the same compound?
Answer: 1220 nM

Question: For `CN1CCN(C(=O)N(Cc2ccc(C(=O)NO)cc2)c2ccc(F)cc2F)CC1` [Compound 416, N-(2,4-difluorophenyl)-N-(4-(hydroxycarbamoyl)benzyl)-4-methylpiperazine-1-carboxamide], which IC50 [1] is on record?
Answer: 2 nM

Question: What about the IC50 [2] of the same compound?
Answer: 930 nM

Question: With `O=C(NO)c1ccc(CN(C(=O)N2CCOCC2)c2cccc(-c3ccc4c(c3)OCO4)c2)cc1` [Compound 418, N-(3-(benzo[d][1,3]dioxol-5-yl)phenyl)-N-(4-(hydroxycarbamoyl)benzyl)morpholine-4-carboxamide] as the compound, how does the IC50 [1] read?
Answer: 2 nM

Question: And the IC50 [2]?
Answer: 190 nM

Question: What does the source list for `CC(=O)N1CC=C(c2cccc(N(Cc3ccc(C(=O)NO)cc3)C(=O)N3CCOCC3)c2)CC1` [Compound 419, N-(3-(1-acetyl-1,2,3,6-tetrahydropyridin-4-yl)phenyl)-N-(4-(hydroxycarbamoyl)benzyl) morpholine-4-carboxamide]?
Answer: IC50 [1]: 5 nM; IC50 [2]: 460 nM

Question: `CS(=O)(=O)N1CC=C(c2cccc(N(Cc3ccc(C(=O)NO)cc3)C(=O)N3CCOCC3)c2)CC1` [Compound 420, N-(4-(hydroxycarbamoyl)benzyl)-N-(3-(1-(methylsulfonyl)-1,2,3,6-tetrahydropyridin-4-yl)phenyl)morpholine-4-carboxamide] was tested. Which IC50 [1] did it give?
Answer: 4 nM

Question: What about the IC50 [2] of the same compound?
Answer: 310 nM
